Reference: patent US20250195536A1, “BICYCLOOCTANE KRAS INHIBITORS” (Incyte Corporation, priority 2023, published 2025)

Legend:
KRAS G12D = KRAS G12D (Homo sapiens, UniProt P01116, G12D); assay: GDP-GTP exchange assay (KRAS G12D); type: biochemical; conditions: bodipy-GDP/GppNHp exchange with SOS1; 4 h pre-incubation, 2 h reaction
Method: (§1) The inhibitor potency of the exemplified compounds was determined in a fluorescence based guanine nucleotide exchange assay, which measures the exchange of bodipy-GDP (fluorescently labeled GDP) for GppNHp (Non-hydrolyzable GTP analog) to generate the active state of KRAS in the presence of SOS1 (guanine nucleotide exchange factor). Inhibitors were serially diluted in DMSO and a volume of 0.1 μL was transferred to the wells of a black low volume 384-well plate. 5 μL/well volume of bodipy-loaded KRAS G12D diluted to 2.5 nM in assay buffer (25 mM Hepes pH 7.5, 50 mM NaCl, 10 mM MgCl2 and 0.01% Brij-35) was added to the plate and pre-incubated with inhibitor for 4 h at r.t. Appropriate controls (enzyme with no inhibitor or with a G12D inhibitor) were included on the plate. The exchange was initiated by the addition of a 5 μL/well volume containing 1 mM GppNHp and 300 nM SOS1 in assay buffer. The 10 μL/well reaction concentration of the bodipy-loaded KRAS G12D, GppNHp, and SOS1 were 2.5 nM, 500 μM, and 150 nM, respectively. The reaction plates were incubated at r.t. for 2 h, a time estimated for complete GDP-GTP exchange in the absence of inhibitor. For the KRAS G12V mutant, similar guanine nucleotide exchange assays were used with 2.5 nM as final concentration for the bodipy loaded KRAS proteins and 3 h incubation after adding GppNHp-SOS1 mixture. A cyclic peptide described to selectively bind G12D mutant (Sakamoto et al., BBRC 484.3 (2017), 605-611) or internal compounds with confirmed binding were used as positive controls in the assay plates. Fluorescence intensities were measured on a PheraStar plate reader instrument (BMG Labtech) with excitation at 485 nm and emission at 520 nm.
(§2) Either GraphPad prism or Genedata Screener SmartFit was used to analyze the data. The IC50 values were derived by fitting the data to a four parameter logistic equation producing a sigmoidal dose-response curve with a variable Hill coefficient.
(§3) The symbol “⬆” indicates IC50 100 nM, “⬆⬆” indicates IC50 >100 nM but ≤1 μM; and “⬆⬆⬆” indicates IC50 is >1 μM but ≤5 μM, “⬆⬆⬆⬆” indicates IC50 is >5 μM but ≤10 μM. “NA” indicates IC50 not available.

KRAS G12V = KRAS G12V (Homo sapiens, UniProt P01116, G12V); assay: GDP-GTP exchange assay (KRAS G12V); type: biochemical; conditions: bodipy-GDP/GppNHp exchange with SOS1; 3 h incubation after GppNHp-SOS1
Sequence of KRAS G12V (P01116 1-188 isoform P01116-2 G12V): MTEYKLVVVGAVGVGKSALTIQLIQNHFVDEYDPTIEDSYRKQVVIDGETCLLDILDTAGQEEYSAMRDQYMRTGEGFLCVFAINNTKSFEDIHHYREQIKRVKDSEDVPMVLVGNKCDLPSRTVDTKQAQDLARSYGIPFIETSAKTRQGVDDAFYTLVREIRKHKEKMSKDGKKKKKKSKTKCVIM
Method: as §1, §2, §3
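Note: one dagger IC50 up to 100 nM and two daggers above 100 nM up to 1 μM.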

Sequence of KRAS G12D (P01116 1-188 isoform P01116-2 G12D): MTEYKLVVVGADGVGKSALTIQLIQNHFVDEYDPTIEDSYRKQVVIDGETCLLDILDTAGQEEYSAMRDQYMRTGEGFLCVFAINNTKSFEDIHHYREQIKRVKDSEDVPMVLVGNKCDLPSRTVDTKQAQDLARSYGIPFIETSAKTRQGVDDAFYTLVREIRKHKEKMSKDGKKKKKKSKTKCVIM

Row | Structure (SMILES) | G12D_exchange (KRAS_G12D exchange assay IC50) (KRAS G12D) | G12V_exchange (KRAS_G12V exchange assay IC50) (KRAS G12V)
1 | Cc1nc2c(F)c(-c3cccc(Cl)c3Cl)c(CCC#N)cc2c2c1cc([C@H]1[C@H]3C[C@H](CN(c4cnc5cccnc5c4)C3)N1C(=O)C1CC1)n2[C@H]1[C@H]2CN[C@@H]1C2 (atropisomer, axis not shown; (Ra)) [Example 6, 3-((Ra)-1-((1R,4R,5S)-2-azabicyclo[2.1.1]hexan-5-yl)-2-((1S,5R,7R)-6-(cyclopropanecarbonyl)-3-(1,5-naphthyridin-3-yl)-3,6-diazabicyclo[3.2.1]octan-7-yl)-7-(2,3-dichlorophenyl)-6-fluoro-4-methyl-1H-pyrrolo[3,2-c]quinolin-8-yl)propanenitrile] | † | †
2 | Cc1nc2c(F)c(-c3cccc(Cl)c3Cl)c(CCC#N)cc2c2c1cc([C@H]1[C@H]3C[C@H](CN(c4ccccc4C(F)(F)F)C3)N1C(=O)C1CC1)n2[C@H]1[C@H]2CN[C@@H]1C2 (atropisomer, axis not shown; (Ra)) [Example 16, 3-((Ra)-1-((1R,4R,5S)-2-azabicyclo[2.1.1]hexan-5-yl)-2-((1S,5R,7R)-6-(cyclopropanecarbonyl)-3-(2-(trifluoromethyl)phenyl)-3,6-diazabicyclo[3.2.1]octan-7-yl)-7-(2,3-dichlorophenyl)-6-fluoro-4-methyl-1H-pyrrolo[3,2-c]quinolin-8-yl)propanenitrile] | ††† | †††
3 | Cc1nc2c(F)c(-c3cccc(Cl)c3Cl)c(CCC#N)cc2c2c1cc([C@H]1[C@H]3C[C@H](CN(c4cc(C(F)(F)F)cc(C(F)(F)F)c4)C3)N1C(=O)C1CC1)n2[C@H]1[C@H]2CN[C@@H]1C2 (atropisomer, axis not shown; (Ra)) [Example 18, 3-((Ra)-1-((1R,4R,5S)-2-azabicyclo[2.1.1]hexan-5-yl)-2-((1S,5R,7R)-3-(3,5-bis(trifluoromethyl)phenyl)-6-(cyclopropanecarbonyl)-3,6-diazabicyclo[3.2.1]octan-7-yl)-7-(2,3-dichlorophenyl)-6-fluoro-4-methyl-1H-pyrrolo[3,2-c]quinolin-8-yl)propanenitrile] | †† | †
4 | Cc1nc2c(F)c(-c3cccc(Cl)c3Cl)c(CCC#N)cc2c2c1cc([C@H]1[C@H]3C[C@H](CN(c4cc(C(C)(F)F)ncn4)C3)N1C(=O)CO)n2[C@H]1[C@H]2CN[C@@H]1C2 (atropisomer, axis not shown; (Ra)) [Example 129, 3-((Ra)-1-((1R,4R,5S)-2-azabicyclo[2.1.1]hexan-5-yl)-7-(2,3-dichlorophenyl)-2-((1 S,5R,7R)-3-(6-(1,1-difluoroethyl)pyrimidin-4-yl)-6-(2-hydroxyacetyl)-3,6-diazabicyclo[3.2.1]octan-7-yl)-6-fluoro-4-methyl-1H-pyrrolo[3,2-c]quinolin-8-yl)propanenitrile] |  | †

More lines, now with the values ahead:

Row | G12D_exchange (KRAS_G12D exchange assay IC50) (KRAS G12D) | G12V_exchange (KRAS_G12V exchange assay IC50) (KRAS G12V) | Structure (SMILES)
5 | † | † | Cc1nc2c(F)c(-c3cccc(Cl)c3Cl)c(CCC#N)cc2c2c1cc([C@H]1[C@H]3C[C@H](CN(c4cnn(C)c4)C3)N1C(=O)C1CC1)n2[C@H]1[C@H]2CN[C@@H]1C2 (atropisomer, axis not shown; (Ra)) [Example 11, 3-((Ra)-1-((1R,4R,5S)-2-azabicyclo[2.1.1]hexan-5-yl)-2-((1S,5R,7R)-6-(cyclopropanecarbonyl)-3-(1-methyl-1H-pyrazol-4-yl)-3,6-diazabicyclo[3.2.1]octan-7-yl)-7-(2,3-dichlorophenyl)-6-fluoro-4-methyl-1H-pyrrolo[3,2-c]quinolin-8-yl)propanenitrile]
6 | † | † | Cc1nc2c(F)c(-c3cccc(Cl)c3Cl)c(CCC#N)cc2c2c1cc([C@H]1[C@H]3C[C@H](CN(c4ccncc4)C3)N1C(=O)C1CC1)n2[C@H]1[C@H]2CN[C@@H]1C2 (atropisomer, axis not shown; (Ra)) [Example 37, 3-((Ra)-1-((1R,4R,5S)-2-azabicyclo[2.1.1]hexan-5-yl)-2-((1S,5R,7R)-6-(cyclopropanecarbonyl)-3-(pyridin-4-yl)-3,6-diazabicyclo[3.2.1]octan-7-yl)-7-(2,3-dichlorophenyl)-6-fluoro-4-methyl-1H-pyrrolo[3,2-c]quinolin-8-yl)propanenitrile]
7 | †† | † | Cc1nc2c(F)c(-c3cccc(Cl)c3Cl)c(CCC#N)cc2c2c1cc([C@H]1[C@H]3C[C@H](CN(c4cccc(=O)n4C)C3)N1C(=O)C1CC1)n2[C@H]1[C@H]2CN[C@@H]1C2 (atropisomer, axis not shown; (Ra)) [Example 57, 3-((Ra)-1-((1R,4R,5S)-2-azabicyclo[2.1.1]hexan-5-yl)-2-((1S,5R,7R)-6-(cyclopropanecarbonyl)-3-(1-methyl-6-oxo-1,6-dihydropyridin-2-yl)-3,6-diazabicyclo[3.2.1]octan-7-yl)-7-(2,3-dichlorophenyl)-6-fluoro-4-methyl-1H-pyrrolo[3,2-c]quinolin-8-yl)propanenitrile]
8 | † | † | Cc1nc2c(F)c(-c3cccc(Cl)c3Cl)c(CCC#N)cc2c2c1cc([C@H]1[C@H]3C[C@H](CN(c4ccnc(C#N)c4)C3)N1C(=O)C1CC1)n2[C@H]1[C@H]2CN[C@@H]1C2 (atropisomer, axis not shown; (Ra)) [Example 63, 4-((1S,5R,7R)-7-((Ra)-1-((1R,4R,5S)-2-azabicyclo[2.1.1]hexan-5-yl)-8-(2-cyanoethyl)-7-(2,3-dichlorophenyl)-6-fluoro-4-methyl-1H-pyrrolo[3,2-c]quinolin-2-yl)-6-(cyclopropanecarbonyl)-3,6-diazabicyclo[3.2.1]octan-3-yl)picolinonitrile]
9 | † | † | Cc1nc2c(F)c(-c3cccc(Cl)c3Cl)c(CCC#N)cc2c2c1cc([C@H]1[C@H]3C[C@H](CN(c4cc(C)n(C)c(=O)c4)C3)N1C(=O)C1CC1)n2[C@H]1[C@H]2CN[C@@H]1C2 (atropisomer, axis not shown; (Ra)) [Example 66, 3-((Ra)-1-((1R,4R,5S)-2-azabicyclo[2.1.1]hexan-5-yl)-2-((1S,5R,7R)-6-(cyclopropanecarbonyl)-3-(1,6-dimethyl-2-oxo-1,2-dihydropyridin-4-yl)-3,6-diazabicyclo[3.2.1]octan-7-yl)-7-(2,3-dichlorophenyl)-6-fluoro-4-methyl-1H-pyrrolo[3,2-c]quinolin-8-yl)propanenitrile]
10 | †† | † | Cc1c(F)ccnc1N1C[C@@H]2C[C@H](C1)N(C(=O)C1CC1)[C@H]2c1cc2c(C)nc3c(F)c(-c4cccc(Cl)c4Cl)c(CCC#N)cc3c2n1[C@H]1[C@H]2CN[C@@H]1C2 (atropisomer, axis not shown; (Ra)) [Example 75, 3-((Ra)-1-((1R,4R,5S)-2-azabicyclo[2.1.1]hexan-5-yl)-2-((1S,5R,7R)-6-(cyclopropanecarbonyl)-3-(4-fluoro-3-methylpyridin-2-yl)-3,6-diazabicyclo[3.2.1]octan-7-yl)-7-(2,3-dichlorophenyl)-6-fluoro-4-methyl-1H-pyrrolo[3,2-c]quinolin-8-yl)propanenitrile]
